According to PubChem BioAssay (NCI):
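1) Cells in 96-well plates. 2) Compound, 48 h, 5 concentrations. 3) Linear interpolation between surrounding doses. 4) Unreached endpoint = highest concentration. At the GI50, growth is halved. TGI denotes the concentration required for complete inhibition of growth.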

What was measured:
Experiment in all cases: DTP human tumour cell line panel, 48 h
CCRF-CEM leukemia = test system: CCRF-CEM leukemia
COLO 205 colon = test system: COLO 205 colon
A498 renal = test system: A498 renal
SK-MEL-5 melanoma = test system: SK-MEL-5 melanoma
IGROV1 ovarian = test system: IGROV1 ovarian
NCI/ADR-RES ovarian = test system: NCI/ADR-RES ovarian
SK-MEL-28 melanoma = test system: SK-MEL-28 melanoma
TK-10 renal = test system: TK-10 renal
MDA-MB-435 = test system: MDA-MB-435
HOP-92 NSCLC = test system: HOP-92 NSCLC
SN12C renal = test system: SN12C renal
M14 melanoma = test system: M14 melanoma
HL-60(TB) leukemia = test system: HL-60(TB) leukemia
HT29 colon = test system: HT29 colon
K-562 leukemia = test system: K-562 leukemia
DU-145 prostate = test system: DU-145 prostate
SW-620 colon = test system: SW-620 colon
MCF7 breast = test system: MCF7 breast
HOP-62 NSCLC = test system: HOP-62 NSCLC
SF-539 CNS = test system: SF-539 CNS
NCI-H522 lung = test system: NCI-H522 lung
OVCAR-8 ovarian = test system: OVCAR-8 ovarian
HCT-15 colon = test system: HCT-15 colon
NCI-H460 lung = test system: NCI-H460 lung
MOLT-4 leukemia = test system: MOLT-4 leukemia
SNB-19 CNS = test system: SNB-19 CNS
UO-31 renal = test system: UO-31 renal
HS 578T breast = test system: HS 578T breast
SK-MEL-2 melanoma = test system: SK-MEL-2 melanoma
HCT-116 colon = test system: HCT-116 colon
SF-295 CNS = test system: SF-295 CNS
OVCAR-3 ovarian = test system: OVCAR-3 ovarian
SF-268 CNS = test system: SF-268 CNS
NCI-H226 lung = test system: NCI-H226 lung
786-0 renal = test system: 786-0 renal
SR leukemia = test system: SR leukemia
OVCAR-4 ovarian = test system: OVCAR-4 ovarian
SNB-75 CNS = test system: SNB-75 CNS
ACHN renal = test system: ACHN renal
CAKI-1 renal = test system: CAKI-1 renal
SK-OV-3 ovarian = test system: SK-OV-3 ovarian
UACC-257 melanoma = test system: UACC-257 melanoma
UACC-62 melanoma = test system: UACC-62 melanoma
U251 CNS = test system: U251 CNS
RPMI-8226 leukemia = test system: RPMI-8226 leukemia
MDA-MB-231 breast = test system: MDA-MB-231 breast
OVCAR-5 ovarian = test system: OVCAR-5 ovarian
BT-549 breast = test system: BT-549 breast
KM12 colon = test system: KM12 colon
RXF 393 renal = test system: RXF 393 renal
T-47D breast = test system: T-47D breast
A549 NSCLC = test system: A549 NSCLC
HCC-2998 colon = test system: HCC-2998 colon
PC-3 prostate = test system: PC-3 prostate
EKVX NSCLC = test system: EKVX NSCLC
LOX IMVI melanoma = test system: LOX IMVI melanoma
NCI-H23 lung = test system: NCI-H23 lung

COc1ccc(CCn2c3c(c4c(O)cccc42)C(=O)c2ccccc2-3)cc1OC
GI50 (CCRF-CEM leukemia): 20 µM
TGI (CCRF-CEM leukemia): > 66.8 µM
GI50 (COLO 205 colon): 29.1 µM
TGI (COLO 205 colon): > 87.3 µM
GI50 (A498 renal): > 100 µM
TGI (A498 renal): > 100 µM
GI50 (SK-MEL-5 melanoma): 18.8 µM
TGI (SK-MEL-5 melanoma): > 60.3 µM
GI50 (IGROV1 ovarian): 0.818 µM
TGI (IGROV1 ovarian): > 47.4 µM
GI50 (NCI/ADR-RES ovarian): 21 µM
TGI (NCI/ADR-RES ovarian): > 69.2 µM
GI50 (SK-MEL-28 melanoma): > 80.2 µM
TGI (SK-MEL-28 melanoma): > 100 µM
GI50 (TK-10 renal): 28.6 µM
TGI (TK-10 renal): > 74.1 µM
GI50 (MDA-MB-435): 20 µM
TGI (MDA-MB-435): > 83.7 µM
GI50 (HOP-92 NSCLC): > 72.5 µM
TGI (HOP-92 NSCLC): > 100 µM
GI50 (SN12C renal): 50.7 µM
TGI (SN12C renal): > 100 µM
GI50 (M14 melanoma): 43.3 µM
TGI (M14 melanoma): > 84.4 µM
GI50 (HL-60(TB) leukemia): 20.3 µM
TGI (HL-60(TB) leukemia): 53 µM
GI50 (HT29 colon): 43.5 µM
TGI (HT29 colon): > 100 µM
GI50 (K-562 leukemia): 12.5 µM
TGI (K-562 leukemia): 69.7 µM
GI50 (DU-145 prostate): > 60.6 µM
TGI (DU-145 prostate): > 100 µM
GI50 (SW-620 colon): 31.1 µM
TGI (SW-620 colon): > 75.6 µM
GI50 (MCF7 breast): 34.8 µM
TGI (MCF7 breast): > 100 µM
GI50 (HOP-62 NSCLC): > 35.6 µM
TGI (HOP-62 NSCLC): > 59.3 µM
GI50 (SF-539 CNS): 6.65 µM
TGI (SF-539 CNS): > 51.2 µM
GI50 (NCI-H522 lung): 20.8 µM
TGI (NCI-H522 lung): > 60.4 µM
GI50 (OVCAR-8 ovarian): 34.3 µM
TGI (OVCAR-8 ovarian): > 83.6 µM
GI50 (HCT-15 colon): 22.5 µM
TGI (HCT-15 colon): > 73.4 µM
GI50 (NCI-H460 lung): 31.2 µM
TGI (NCI-H460 lung): > 96.5 µM
GI50 (MOLT-4 leukemia): 19.9 µM
TGI (MOLT-4 leukemia): 63.9 µM
GI50 (SNB-19 CNS): > 100 µM
TGI (SNB-19 CNS): > 100 µM
GI50 (UO-31 renal): 37.5 µM
TGI (UO-31 renal): > 100 µM
GI50 (HS 578T breast): 46.2 µM
TGI (HS 578T breast): > 85.4 µM
GI50 (SK-MEL-2 melanoma): 24.1 µM
TGI (SK-MEL-2 melanoma): > 95.3 µM
GI50 (HCT-116 colon): 26.1 µM
TGI (HCT-116 colon): > 57.5 µM
GI50 (SF-295 CNS): 30.8 µM
TGI (SF-295 CNS): > 81.6 µM
GI50 (OVCAR-3 ovarian): 54.1 µM
TGI (OVCAR-3 ovarian): > 100 µM
GI50 (SF-268 CNS): 38.9 µM
TGI (SF-268 CNS): > 100 µM
GI50 (NCI-H226 lung): > 56.1 µM
TGI (NCI-H226 lung): > 100 µM
GI50 (786-0 renal): 36.8 µM
TGI (786-0 renal): > 69.4 µM
GI50 (SR leukemia): 12.9 µM
TGI (SR leukemia): 34 µM
GI50 (OVCAR-4 ovarian): 71.8 µM
TGI (OVCAR-4 ovarian): > 100 µM
GI50 (SNB-75 CNS): > 100 µM
TGI (SNB-75 CNS): > 100 µM
GI50 (ACHN renal): 13.6 µM
TGI (ACHN renal): > 52.7 µM
GI50 (CAKI-1 renal): 36.3 µM
TGI (CAKI-1 renal): > 96.5 µM
GI50 (SK-OV-3 ovarian): > 100 µM
TGI (SK-OV-3 ovarian): > 100 µM
GI50 (UACC-257 melanoma): 52.6 µM
TGI (UACC-257 melanoma): 98.6 µM
GI50 (UACC-62 melanoma): 21.5 µM
TGI (UACC-62 melanoma): > 72.9 µM
GI50 (U251 CNS): 41.8 µM
TGI (U251 CNS): > 100 µM
GI50 (RPMI-8226 leukemia): 21.2 µM
TGI (RPMI-8226 leukemia): > 70.8 µM
GI50 (MDA-MB-231 breast): 41.5 µM
TGI (MDA-MB-231 breast): > 90.9 µM
GI50 (OVCAR-5 ovarian): > 42 µM
TGI (OVCAR-5 ovarian): > 84.2 µM
GI50 (BT-549 breast): 6.57 µM
TGI (BT-549 breast): > 47.7 µM
GI50 (KM12 colon): 22.1 µM
TGI (KM12 colon): > 81.9 µM
GI50 (RXF 393 renal): > 79 µM
TGI (RXF 393 renal): > 100 µM
GI50 (T-47D breast): 67.9 µM
TGI (T-47D breast): > 100 µM
GI50 (A549 NSCLC): 32.9 µM
TGI (A549 NSCLC): > 100 µM
GI50 (HCC-2998 colon): 19.5 µM
TGI (HCC-2998 colon): 43.4 µM
GI50 (PC-3 prostate): 37.4 µM
TGI (PC-3 prostate): > 100 µM
GI50 (EKVX NSCLC): 29.3 µM
TGI (EKVX NSCLC): > 94.7 µM
GI50 (LOX IMVI melanoma): > 45 µM
TGI (LOX IMVI melanoma): > 73.3 µM
GI50 (NCI-H23 lung): 25.3 µM
TGI (NCI-H23 lung): > 77.7 µM
